Patent US20120195837A1, “TIN(II)-2-HYDROXYCARBOXYLATES” (HONEYWELL INTERNATIONAL INC., priority 2011, published 2012)

Assays:
[1] = Physical properties of the solid (hygroscopicity, flow); format: physicochemical; conditions: versus stannous chloride dihydrate
Description: Thus, tin(II) lactate is observed to be a non-hygroscopic, and therefore an easily handlable free-flowing powder. In addition, tin(II) lactate is observed to be non-corrosive.
In addition, tin(II) lactate is observed to be non-corrosive toward standard industrial equipment.

[2] = Oral care application of formulated dentifrice or oral wash; format: in vivo; conditions: formulated as oral dentifrice or oral wash
Description: A sample of tin(II) L-lactate (Example 2) is formulated as an oral dentifrice or oral wash, using additives and methods as known in the art.

Question: With `CC(O)C(=O)[O-].CC(O)C(=O)[O-].[Sn+2]` (stereo not drawn) [tin(II) lactate, Tin(II) Lactate] as the compound, how does the “hygroscopicity / powder behaviour” value [1] read?
Answer: Its value is “non-hygroscopic, free-flowing powder”.

Question: What does the source list for `C[C@H](O)C(=O)[O-].C[C@H](O)C(=O)[O-].[Sn+2]` [tin(II) L-lactate, Tin(II) L-lactate]?
Answer: retention of Sn(II) ion on oral surfaces ([2]; applied for about 5 to about 10 minutes): successfully results in retention of Sn(II) ion on oral surfaces; plaque formation and/or dental caries ([2]; compared with a control group which lacks the Sn(II) application): reduces plaque formation and/or dental caries
